Measured values published in paper PMC3841297 (Chemical biology & drug design, 2013).

Molecular target: SrtA (SrtAΔN59, residue 60–206) (Staphylococcus aureus, UniProt Q2FV99)
Experiment: SrtA enzymatic inhibition, FRET assay
Type: biochemical

O=C(O)COc1ccccc1C1Nc2cccc3cccc(c23)N1 [Compound 1, (2-(2,3-dihydro-1H-perimidin-2-yl)-phenoxy)-acetic acid]
IC50: 47.2 ± 5.9 µM
